Values of other authors in patent US20110066230A1, “Fluorinated GHRH Antagonists” (priority 2009, published 2011).

Columns and labels:
[1] = target: T1, pituitary receptors (Homo sapiens, UniProt Q02643); settings: biological activity on the pituitary
T1 sequence (Q02643 23-423): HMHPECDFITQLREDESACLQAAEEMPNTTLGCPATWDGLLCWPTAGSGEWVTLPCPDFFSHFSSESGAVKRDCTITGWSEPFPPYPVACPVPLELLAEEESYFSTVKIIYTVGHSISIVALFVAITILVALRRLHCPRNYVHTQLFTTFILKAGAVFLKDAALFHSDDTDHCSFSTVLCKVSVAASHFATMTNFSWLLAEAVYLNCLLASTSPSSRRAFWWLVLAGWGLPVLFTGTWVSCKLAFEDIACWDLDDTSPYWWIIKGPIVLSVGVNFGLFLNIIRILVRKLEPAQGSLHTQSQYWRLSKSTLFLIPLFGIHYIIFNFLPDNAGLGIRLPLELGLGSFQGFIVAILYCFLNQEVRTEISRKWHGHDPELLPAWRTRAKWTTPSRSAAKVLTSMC

[2] = test system: rat anterior pituitary adenylate cyclase
[3] = test system: GH secretion
[4] = normal subjects, large doses (400 μg/kg)

Row | potency retained relative to native GH-RH [1] [%] | activation of rat anterior pituitary adenylate cyclase by hGH-RH(1-29)NH2 [2] | Substance | GH levels ([3]; a patient with acromegaly) | nocturnal GH secretion [3, 4] | response to GH-RH [3, 4]
1 | ≥ 50 | – | Tyr-Ala-Asp-Ala-Ile^5-Phe-Thr-Asn-Ser-Tyr^10-Arg-Lys-Val-Leu-Gly^15-Gln-Leu-Ser-Ala-Arg^20-Lys-Leu-Leu-Gln-Asp^25-Ile-Met-Ser-Arg^29-NH2 [GH-RH(1-29)] | – | – | –
2 | – | prevent the activation | [Ac-Tyr^1,D-Arg^2]hGH-RH(1-29)NH2 [standard antagonist] | reduced GH levels | eliminated nocturnal GH secretion | inhibited the response to GH-RH
